Assay results from patent US20230302082A1, “AGENT FOR REVERSIBLE OPENING OF NEURAL VASCULAR BARRIER” (YAMAGUCHI UNIVERSITY, priority 2020, published 2023).
Where a name gives a salt, the structure may show the parent alone.

How the values were obtained:
[1] = tested on: mouse brain microvascular endothelial cell line bEnd.3 cells; assay: Immunofluorescence staining and quantification of claudin-5 signals on the cell membranes of monolayer-cultured bEnd.3 cells; assay type: cell-based
Protocol: (§1) In an in vitro system, mouse brain microvascular endothelial cell line bEnd.3 cells (obtained from the American Type Culture Collection) were grown as a monolayer at 37° C. under 5% CO^2 in Dulbecco's modified Eagle's medium containing 4500 mg/L glucose (Sigma-Aldrich) supplemented with 10% fetal bovine serum (FBS). CypA (200, 300 or 400 ng/ml: BioVendor R&D) was added to the culture supernatant of the monolayer-cultured bEnd.3 cells, followed by incubation for 3 hours. Subsequently, expression changes of claudin-5 in the bEnd.3 cells were observed by immunofluorescence staining, and claudin-5 signals on the cell membranes were quantified. Further, TEER, an index of vascular barrier function, was measured in the bEnd.3 cell monolayer.
The immunofluorescence staining was performed as follows. First, the cultured bEnd.3 cells were fixed with 100% methanol for 5 min at room temperature and incubated with 10% non-immune goat serum (Invitrogen) for 30 minutes to block non-specific binding of antibodies. Next, the cells were reacted with rabbit polyclonal antibodies against claudin-5 (1/25 dilution, Invitrogen) at 4° C. overnight. After washing with phosphate-buffered saline (PBS), the cells were incubated with Alexa Fluor 488 goat anti-rabbit IgG (1/200 dilution, Eugene) for 1 hour at room temperature under light protection. […] For a quantitative analysis, fluorescence intensities of claudin-5 on the plasma membranes were measured using an operation menu installed in LSMS Pascal6, 7.3. […] Fluorescence intensities were then quantified at points on the cell membranes that intersected the drawn straight lines. The mean value of the fluorescence intensities was calculated as an expression level of claudin-5 on the cell membranes of each monolayer at approximately 80 points. […]
The immunofluorescence staining, the quantification of the claudin-5 signals on the cell membranes, and the measurement of TEER in the bEnd.3 cell monolayer were performed in the same manner as in Example 1 except that CypA (300 ng/ml: BioVendor R&D) lacking PPlase activity was used as CypA. […]

[2] = tested on: mouse retinal vasculature; assay: Claudin-5 expression in endothelial cell membranes of the retinal vasculature after intravenous CypA (immunofluorescence); assay type: in vivo; conditions: mouse retina, single intravenous injection 200 μg/kg
Source text: Based on the results of Example 1, a change in the barrier function caused by CypA administration was examined in vivo using a mouse retinal tissue. Note that the retina is a tissue that is formed as an outgrowth of the central neural system during the process of ontogeny and is a part of the central neural system like the brain. Since the vascular system of the retina can be two-dimensionally observed and evaluated over the entire length in the longitudinal direction, the retina was used as an analysis material representing the central neural system in the present example.
(§2) Seven-week-old male C57B6/N mice (Japan SLC, Inc.) were given a single intravenous injection (200 μg/kg) of CypA. A change in the expression level of claudin-5 localized in the endothelial cell membranes of the retinal vasculature and permeability of the retinal vasculature were measured 3, 6, and 24 hours after the […] injection. The change in the expression of claudin-5 was measured by immunofluorescence staining using the rabbit polyclonal antibodies against claudin-5 in the same manner as in Example 1. The above-mentioned measurement of the permeability of the retinal vasculature was performed as follows.

bEnd.3 cell monolayer = assay: TEER (index of vascular barrier function) of the bEnd.3 cell monolayer; assay type: cell-based, mouse
Protocol: as §1
The immunofluorescence staining, the quantification of the claudin-5 signals on the cell membranes, and the measurement of TEER in the bEnd.3 cell monolayer were performed in the same manner as in Example 1 except that CypA (300 ng/ml: BioVendor R&D) lacking PPlase activity was used as CypA.
In order to evaluate the opening effect of CypA on the neural vascular barrier over time, the same experiment as in Example 1 was performed while changing the treatment time of CypA. Specifically, CypA at a concentration of 300 ng/ml was applied to the cells, followed by incubation for 1, 3, 6, 9, and 12 hours. Then, the cells were subjected to the immunofluorescence staining, the quantification of the claudin-5 signals on the cell membranes, and the measurement of TEER in the bEnd.3 cell monolayer.

[3] = tested on: mouse retinal vasculature; assay: Permeability of the retinal vasculature (leakage of injected tracer dye, index of blood-retinal barrier function); assay type: in vivo; conditions: mouse retina, single intravenous injection 200 μg/kg
Protocol: as §2
First, 500 μL of PBS containing 100 μg/mL Hoechst dye H33258 (molecular weight 534 Da, Sigma-Aldrich) and 1 mg/mL tetramethylrhodamine-conjugated lysine-fixable dextran (molecular weight 10,000 Da, Thermo Fisher Scientific) was injected into the left ventricle as a tracer dye. After injection of the Hoechst dye, eyes were enucleated and immediately fixed with 4% paraformaldehyde (PFA) for 15 min at room temperature under light protection, thereby preparing retinal flat mounts. They were mounted in a fluorescent mounting medium, and leakage of the injected tracer was observed under a Zeiss LSM510 META laser confocal microscope (Carl Zeiss AG) to measure the permeability of the retinal vasculature (an index of blood-retinal barrier function). Experiments were performed independently 3 times or more.

neural vascular barrier = assay: Uptake of intravenously administered doxorubicin into cerebrum, liver and kidney with or without preadministration of CypA (doxorubicin fluorescence); assay type: in vivo, mouse
Protocol: Further, fluorescence emitted by doxorubicin was used to evaluate the uptake of doxorubicin into the cerebrum, the liver and the kidney. […] Fujifilm Wako Pure Chemical Corp.), an anticancer drug with low intracerebral penetration, was injected into caudal veins of mice with or without pre-injection of CypA (200 μg/kg). Pre-injection of CypA was performed intravenously 3 hours prior to the injection of doxorubicin. Mice were sacrificed 3 hours after the injection of doxorubicin hydrochloride, and the cerebrum, the liver, and the kidney were collected and embedded and frozen in OCT compound. Next, frozen sections of 30 μm thickness were prepared and observed under an LSM710 laser confocal microscope (Carl Zeiss AG).

Row | Molecule | claudin-5 level on the cell membranes ([1]; CypA 300 ng/ml, 3 hours after treatment (FIG. 3a, 3b)) | claudin-5 level on the cell membranes ([1]; CypA 300 ng/ml, 6 hours (FIG. 3a, 3b)) | claudin-5 level on the cell membranes ([1]; CypA 200, 300 or 400 ng/ml, 3 hours after treatment (FIG. 1a, 1B)) | expression level of claudin-5 in the cell membranes of the peripheral microvascular endothelial cells ([2]; 3 hours (FIG. 4a)) | expression level of claudin-5 in the cell membranes of the peripheral microvascular endothelial cells ([2]; 24 hours (FIG. 4a)) | barrier function (TEER) (bEnd.3 cell monolayer; CypA 300 ng/ml, 3 hours after treatment (FIG. 3c)) | barrier function (TEER) (bEnd.3 cell monolayer; CypA 300 ng/ml, 6 hours (FIG. 3c)) | barrier function (TEER) (bEnd.3 cell monolayer; CypA 200, 300 or 400 ng/ml, 3 hours after treatment (FIG. 1c)) | leakage of the injected tracer dye ([3]; 3 hours (FIG. 4b)) | leakage of the injected tracer dye ([3]; 6 hours (FIG. 4b)) | leakage of the injected tracer dye ([3]; 24 hours (FIG. 4b)) | effect of CypA preadministration on delivery of doxorubicin to the neural tissue parenchyma (neural vascular barrier; mouse cerebrum, CypA 200 μg/kg i.v. 3 hours before doxorubicin hydrochloride 6.25 mg/kg i.v.) | effect of CypA pre-injection on intensities of doxorubicin fluorescence signals in the liver and the kidney (neural vascular barrier; mouse, CypA 200 μg/kg i.v. 3 hours before doxorubicin hydrochloride 6.25 mg/kg i.v.) | fluorescent signals of doxorubicin in the liver and the kidney (neural vascular barrier; mouse, doxorubicin hydrochloride 6.25 mg/kg i.v., 3 hours after injection, with or without pre-injection of CypA) | doxorubicin fluorescence signal in the cerebrum (neural vascular barrier; mouse, doxorubicin hydrochloride 6.25 mg/kg i.v., 3 hours after injection, with preadministration of CypA 200 μg/kg i.v. 3 hours before) | doxorubicin fluorescence signal in the cerebrum (neural vascular barrier; mouse, doxorubicin hydrochloride 6.25 mg/kg i.v., 3 hours after injection, without preadministration of CypA)
1 | Cyclophilin A [CypA] | decreased significantly | recovered to the level prior to the CypA stimulation | significantly reduced | decrease | recovered to a physiological level | significantly decreased | recovered to the state prior to the CypA stimulation | significant reduction in the barrier function | increased | decreased after 6 hours as compared with after 3 hours | returned to an undetectable physiological level | allowed the intravenously administered doxorubicin to pass through the neural vascular barrier and reach the neural tissue parenchyma | not significantly affected |  |  | 
2 | COc1cccc2c1C(=O)c1c(O)c3c(c(O)c1C2=O)C[C@@](O)(C(=O)CO)C[C@@H]3O[C@H]1C[C@H](N)[C@H](O)[C@H](C)O1 [doxorubicin, Doxorubicin hydrochloride] |  |  |  |  |  |  |  |  |  |  |  |  |  | strong fluorescent signals of doxorubicin were detected | significant doxorubicin fluorescence signals were detected | no doxorubicin fluorescence signal was detected
